Measurements reported in PMC8226262, “Licarin-B Exhibits Activity Against the Toxoplasma gondii RH Strain by Damaging Mitochondria and Activating Autophagy” (Frontiers in Cell and Developmental Biology, 2021).
Where two headings read alike, the source gives them in different places.

Legend:
[1] = system: T. gondii tachyzoites (strain RH) in HFFs; experiment: In vitro screening of anti-T. gondii activity (Giemsa staining, qPCR); type: cell-based, Toxoplasma gondii; details: 24 h; for inhibition at 20 µg/mL: 20 μg/mL
Method: Human foreskin fibroblasts were seeded in 6-well plates and infected with 3 × 10^4 fresh T. gondii tachyzoites. After 8 h, the natural compounds in DMEM supplemented with 1% FBS were added. Sulfadiazine and pyrimethamine were included as positive drug controls. After incubation for 24 h, the cells were washed twice with PBS, stained with Giemsa, and observed by light microscopy. In addition, total DNA was isolated from the cells using DNAiso Reagent (Takara), and a 529-bp repeat element was amplified by quantitative polymerase chain reaction (qPCR) with the following primers: Tox-F (5′-AGGAGAGATATCAGGACTGTAG-3′), Tox-R (5′-GCGTCGTCTCGTCTAGATCG-3′), and the Taqman probe Tox-TP (6-Fam CCGGCTTGGCTGCTTTTCCT BHQ1), as described in a previous study ([Zhang J.L. et al., 2019]). The inhibition rates against T. gondii proliferation for the natural compounds at concentrations with no HFF toxicity were calculated, and the inhibition rate in each treatment group was presented as the % of the control group. The experiment was repeated three times.

HFF cells = experiment: Cytotoxicity assay (CCK-8); type: cell-based, Human
Method: In brief, HFFs (1 × 10^4 cells/well) were seeded in 96-well plates in a monolayer and incubated with different concentrations of the compounds in DMEM with 1% FBS; DMEM without compound was used as a control. After 24 h, CCK-8 solution (Biomake, United States) was added, and absorbance was measured at 450 nm using a Multiskan GO instrument (Thermo Fisher Scientific, MA, United States). The cell viability values are expressed as percentages of the control value (considered as 100% survival). […] Triplicate independent experiments were performed.

[2] = system: T. gondii invasion of HFFs; experiment: Anti-invasion assessment in vitro (qPCR); type: cell-based, Toxoplasma gondii; details: Toxoplasma gondii, 0.4 μg/mL, 2 h of infection, read-out: Anti-invasion inhibition rate
Method: Human foreskin fibroblasts were seeded in 6-well plates and incubated with different concentrations of licarin-B (4.5, 9, 13.5, 18, or 22.5 μg/mL), sulfadiazine (0.4 μg/mL, as a positive control) or without drugs in DMEM supplemented with 1% FBS and then infected with 3 × 10^6 fresh parasites per well. The anti-invasion capability of licarin-B was determined by qPCR after 2 h of infection, as described in a previous study ([Zhang J.L. et al., 2019]). Triplicate independent experiments were performed.

[3] = system: T. gondii tachyzoite intracellular proliferation in HFFs; experiment: Anti-proliferation activity of licarin-B (qPCR); type: cell-based, Toxoplasma gondii; details: Toxoplasma gondii, 0.4 μg/mL, 24 h
Method: DMEM without drugs was used as a parasite control. […] After 24 h, the cells were washed twice with PBS, and total genomic DNA from the cells was obtained as described in a previous study ([Zhang J.L. et al., 2019]). […] The results represent the means ± standard deviations (SD) from at least three independent experiments. The EC50 of licarin-B for tachyzoite growth inhibition was plotted as a function of the compound concentration via non-linear curve analysis using SPSS 19.0 software (SPSS Inc., Chicago, IL, United States). The results of the anti-invasion and anti-proliferation tests, the in vivo assays of the survival rate and parasite burden and data comparisons between the parasite control and treatment groups were statistically analyzed by one-way analysis of variance (ANOVA) using SPSS software.

[4] = 80 μg/mL, T. gondii proliferation in HFFs
[5] = Toxoplasma gondii, 4 μg/mL, T. gondii proliferation in HFFs, read-out: Mean inhibition rate (% of control)
[6] = Toxoplasma gondii, read-out: Mean inhibition rate (% of control)
[7] = Toxoplasma gondii, T. gondii proliferation in HFFs, read-out: Mean inhibition rate (% of control)

## O=C(/C=C/c1ccc(O)c(O)c1)O[C@@H]1C[C@](O)(C(=O)O)C[C@@H](O)[C@H]1O [Chlorogenic acid, chlorogenic acid]
[1]; Toxoplasma gondii, 400 μg/mL, T. gondii proliferation in HFFs, read-out: Mean inhibition rate (% of control)
  inhibition at 400 µg/mL: 34.6 ± 2.77%
HFF cells; human, 24 h
  Natural compound concentration range with no toxicity to HFF cells: 0.01 to 400 µg/mL

## O=C(O)[C@H](O)c1ccccc1 [D-mandelic acid]
[1]; [4]
  Mean inhibition rate (% of control): 9.30 ± 3.76%
HFF cells; CCK-8, 24 h, DMEM with 1% FBS
  Natural compound concentration range with no toxicity to HFF cells: 0.01 to 80 µg/mL

## C/C=C/c1cc(OC)c2c(c1)C(C)C(c1ccc(O)c(OC)c1)O2 (stereo not drawn) [Dehydrodiisoeugenol, dehydrodiisoeugenol]
[1]; [4]
  Mean inhibition rate (% of control): 8.14 ± 2.15%

## COc1cc(O)ccc1/C=C/C(=O)c1ccc(O)cc1 [Echinatin, echinatin]
[1]; [5]
  inhibition at 4 µg/mL: 63.1 ± 10.7%
HFF cells; CCK-8, 24 h, DMEM with 1% FBS
  Natural compound concentration range with no toxicity to HFF cells: 0.01 to 4 µg/mL

## O=c1c(-c2ccc(O)cc2)coc2cc(O)cc(O)c12 [Genistein, genistein]
[1]; [6]
  inhibition at 40 µg/mL: 22.3 ± 5.91%
HFF cells; CCK-8, 24 h, DMEM with 1% FBS
  Natural compound concentration range with no toxicity to HFF cells: 0.01 to 40 µg/mL

## O=c1c(-c2ccc(O)cc2)coc2cc(O[C@@H]3O[C@H](CO)[C@@H](O)[C@H](O)[C@H]3O)cc(O)c12 [Genistin, genistin]
[1]; Toxoplasma gondii, 32 μg/mL, T. gondii proliferation in HFFs, read-out: Mean inhibition rate (% of control)
  inhibition at 32 µg/mL: 26.3 ± 3.54%
HFF cells; CCK-8, 24 h, DMEM with 1% FBS
  Natural compound concentration range with no toxicity to HFF cells: 0.01 to 32 µg/mL

## COc1cc2c(=O)c(-c3ccc(O)cc3)coc2cc1O [Glycitein, glycitein]
[1]; Toxoplasma gondii, 40 μg/mL, T. gondii proliferation in HFFs, read-out: Mean inhibition rate (% of control)
  inhibition at 40 µg/mL: 8.11 ± 2.19%
HFF cells; CCK-8, 24 h, DMEM with 1% FBS
  Natural compound concentration range with no toxicity to HFF cells: 0.01 to 40 µg/mL

## O=C(/C=C/c1ccc(O)cc1)c1ccc(O)cc1O [Isoliquiritigenin, isoliquiritigenin]
[1]; [5]
  inhibition at 4 µg/mL: 42.8 ± 7.92%
HFF cells; human, 24 h
  Natural compound concentration range with no toxicity to HFF cells: 0.01 to 4 µg/mL

## O=C(O)[C@@H](O)c1ccccc1 [L-mandelic acid]
[1]; [4]
  Mean inhibition rate (% of control): 11.87 ± 2.84%
HFF cells; CCK-8, 24 h, DMEM with 1% FBS
  Natural compound concentration range with no toxicity to HFF cells: 0.01 to 80 µg/mL

## COc1c(/C=C/C(=O)c2ccc(O)cc2)ccc(O)c1O [Licochalcone B]
[1]; 16 μg/mL, T. gondii proliferation in HFFs
  Mean inhibition rate (% of control): 51.67 ± 6.71%

## COc1c(/C=C/C(=O)c2ccc(O)cc2)ccc(O)c1CC=C(C)C [Licochalcone C, licochalcone C]
[1]; 4 μg/mL, T. gondii proliferation in HFFs
  Mean inhibition rate (% of control): 54.91 ± 4.85%

## CC1(C)O[C@H]2CC(=O)OC[C@]23[C@H]2CC[C@@]4(C)[C@H](c5ccoc5)OC(=O)[C@H]5O[C@]54[C@]2(C)C(=O)C[C@@H]13 [Limonin, limonin]
[1]; Toxoplasma gondii, 80 μg/mL, T. gondii proliferation in HFFs, read-out: Mean inhibition rate (% of control)
  inhibition at 80 µg/mL: 72.2 ± 9.78%
HFF cells; human, 24 h
  Natural compound concentration range with no toxicity to HFF cells: 0.01 to 80 µg/mL

## CC1(C)CC[C@]2(C(=O)O)CC[C@]3(C)C(=CC[C@@H]4[C@@]5(C)C[C@@H](O)[C@H](O)C(C)(C)[C@@H]5CC[C@]43C)[C@@H]2C1 [Maslinic acid, maslinic acid]
[1]; [6]
  inhibition at 4 µg/mL: 65.4 ± 4.53%
HFF cells; CCK-8, 24 h, DMEM with 1% FBS
  Natural compound concentration range with no toxicity to HFF cells: 0.01 to 4 µg/mL

## CCCCCCCCCCCCCC(=O)OC [Methyl myristate, methyl myristate]
[1]; Toxoplasma gondii, 160 μg/mL, T. gondii proliferation in HFFs, read-out: Mean inhibition rate (% of control)
  inhibition at 160 µg/mL: 7.65 ± 2.64%
HFF cells; human, 24 h
  Natural compound concentration range with no toxicity to HFF cells: 0.01 to 160 µg/mL

## CCCCCCCCCCCCCC(=O)O [Myristic acid, myristic acid]
[1]; [7]
  inhibition at 20 µg/mL: 26.3 ± 1.32%
HFF cells; CCK-8, 24 h, DMEM with 1% FBS
  Natural compound concentration range with no toxicity to HFF cells: 0.01 to 20 µg/mL

## C=CCc1cc(OC)c2c(c1)OCO2 [Myristicin, myristicin]
[1]; [6]
  inhibition at 40 µg/mL: 22.3 ± 3.46%
HFF cells; CCK-8, 24 h, DMEM with 1% FBS
  Natural compound concentration range with no toxicity to HFF cells: 0.01 to 40 µg/mL

## CC1=CC(=O)C(C(C)C)CC1 (stereo not drawn) [Piperitone, piperitone]
[1]; [7]
  inhibition at 20 µg/mL: 31.1 ± 1.97%
HFF cells; human, 24 h
  Natural compound concentration range with no toxicity to HFF cells: 0.01 to 20 µg/mL

## Nc1ccc(S(=O)(=O)Nc2ncccn2)cc1 [Sulfadiazine, reference compound]
[2]
  inhibition at 0.4 µg/mL: 56.5%
[3]
  inhibition at 0.4 µg/mL: 40.8%

## Cc1ccc(C(C)C)c(O)c1 [Thymol, thymol]
[1]; Toxoplasma gondii, 16 μg/mL, T. gondii proliferation in HFFs, read-out: Mean inhibition rate (% of control)
  inhibition at 16 µg/mL: 25.7 ± 2.31%
HFF cells; human, 24 h
  Natural compound concentration range with no toxicity to HFF cells: 0.01 to 16 µg/mL

## licorice glycosides
[1]; [4]
  Mean inhibition rate (% of control): 35.93 ± 4.78%
